Among the data in patent publication US9340590B2 (priority 2011, dated 2016) are IC50 values, retold here.

Where two headings read alike, the source gives them in different places. Positions of bridges follow the written chain, without caps; N, C: chain ends. Non-standard residues stand in square brackets, D forms with d. Residues, ends and D or L forms follow the SMILES beside them. Phe(4-COOH) = N[C@@H](Cc1ccc(C(=O)O)cc1)C(=O)O; NMeL = CN[C@@H](CC(C)C)C(=O)O

Test in all cases: cell-based
For one assay, the target named is hNav1.7 (Homo sapiens, UniProt Q15858). The assay is classed as cell-based.
hNav1.7, sequence (Q15858 whole entry, looked up): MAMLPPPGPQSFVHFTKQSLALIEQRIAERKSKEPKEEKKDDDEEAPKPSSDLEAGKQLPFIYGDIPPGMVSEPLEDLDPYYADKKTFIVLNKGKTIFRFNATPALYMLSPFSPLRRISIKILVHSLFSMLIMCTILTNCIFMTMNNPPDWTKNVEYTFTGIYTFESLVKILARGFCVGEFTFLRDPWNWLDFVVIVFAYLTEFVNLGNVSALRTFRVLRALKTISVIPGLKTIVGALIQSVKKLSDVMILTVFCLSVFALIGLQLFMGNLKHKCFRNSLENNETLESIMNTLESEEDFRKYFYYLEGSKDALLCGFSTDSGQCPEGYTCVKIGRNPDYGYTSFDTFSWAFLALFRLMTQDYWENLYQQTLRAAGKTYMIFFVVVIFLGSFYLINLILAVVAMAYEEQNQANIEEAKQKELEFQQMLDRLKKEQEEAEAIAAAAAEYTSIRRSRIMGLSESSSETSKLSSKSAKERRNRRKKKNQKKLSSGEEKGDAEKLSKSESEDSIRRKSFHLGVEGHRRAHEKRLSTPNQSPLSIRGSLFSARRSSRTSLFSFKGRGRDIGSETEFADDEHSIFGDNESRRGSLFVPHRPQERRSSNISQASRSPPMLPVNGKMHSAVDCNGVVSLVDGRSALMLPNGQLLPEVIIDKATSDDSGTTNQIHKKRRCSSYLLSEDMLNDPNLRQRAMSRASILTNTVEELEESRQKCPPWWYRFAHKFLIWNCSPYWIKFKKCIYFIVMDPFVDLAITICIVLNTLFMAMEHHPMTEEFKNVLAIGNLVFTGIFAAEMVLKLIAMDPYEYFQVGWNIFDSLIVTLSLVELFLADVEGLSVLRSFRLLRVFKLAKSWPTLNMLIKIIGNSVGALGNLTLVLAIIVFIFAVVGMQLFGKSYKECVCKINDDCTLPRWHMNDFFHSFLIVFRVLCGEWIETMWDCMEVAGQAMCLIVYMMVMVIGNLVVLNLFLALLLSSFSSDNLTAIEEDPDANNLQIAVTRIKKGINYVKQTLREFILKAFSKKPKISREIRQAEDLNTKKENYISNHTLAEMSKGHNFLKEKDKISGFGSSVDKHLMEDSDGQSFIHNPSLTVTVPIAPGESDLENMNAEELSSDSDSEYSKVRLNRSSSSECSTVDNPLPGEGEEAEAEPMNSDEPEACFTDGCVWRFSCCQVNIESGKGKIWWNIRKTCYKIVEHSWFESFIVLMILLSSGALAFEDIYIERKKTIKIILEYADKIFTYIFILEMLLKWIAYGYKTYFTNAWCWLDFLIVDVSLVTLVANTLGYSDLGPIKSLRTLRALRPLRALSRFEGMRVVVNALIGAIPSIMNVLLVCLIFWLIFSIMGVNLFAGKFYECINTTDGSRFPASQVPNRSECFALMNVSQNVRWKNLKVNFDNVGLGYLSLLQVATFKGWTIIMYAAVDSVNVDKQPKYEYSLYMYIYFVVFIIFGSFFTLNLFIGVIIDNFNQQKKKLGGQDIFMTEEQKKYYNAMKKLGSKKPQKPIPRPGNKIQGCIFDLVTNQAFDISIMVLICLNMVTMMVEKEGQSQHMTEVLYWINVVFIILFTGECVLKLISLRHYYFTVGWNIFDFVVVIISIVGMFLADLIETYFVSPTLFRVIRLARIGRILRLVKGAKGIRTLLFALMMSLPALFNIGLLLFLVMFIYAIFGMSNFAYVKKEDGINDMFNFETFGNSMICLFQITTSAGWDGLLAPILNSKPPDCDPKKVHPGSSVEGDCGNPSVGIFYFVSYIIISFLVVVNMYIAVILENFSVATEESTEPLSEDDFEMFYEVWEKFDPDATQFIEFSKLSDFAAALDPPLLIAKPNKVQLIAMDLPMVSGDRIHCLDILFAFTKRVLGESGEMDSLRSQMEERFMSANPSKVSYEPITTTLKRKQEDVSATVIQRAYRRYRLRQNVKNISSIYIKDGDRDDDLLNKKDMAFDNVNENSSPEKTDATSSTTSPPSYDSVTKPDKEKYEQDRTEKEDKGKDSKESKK
For the next assay, the target named is hNav1.5 (Homo sapiens, UniProt Q14524). As to conditions: IonWorks Quattro, read-out: IWQ Use Nav1.5. A general note: The patch-clamp technique gives a direct electrical read-out from membranes.
The target of another assay is hNav1.3 (Homo sapiens, UniProt Q9NY46). The following applies: IonWorks Quattro, read-out: IWQ Use Nav1.3.
hNav1.3, sequence (Q9NY46 whole entry, looked up): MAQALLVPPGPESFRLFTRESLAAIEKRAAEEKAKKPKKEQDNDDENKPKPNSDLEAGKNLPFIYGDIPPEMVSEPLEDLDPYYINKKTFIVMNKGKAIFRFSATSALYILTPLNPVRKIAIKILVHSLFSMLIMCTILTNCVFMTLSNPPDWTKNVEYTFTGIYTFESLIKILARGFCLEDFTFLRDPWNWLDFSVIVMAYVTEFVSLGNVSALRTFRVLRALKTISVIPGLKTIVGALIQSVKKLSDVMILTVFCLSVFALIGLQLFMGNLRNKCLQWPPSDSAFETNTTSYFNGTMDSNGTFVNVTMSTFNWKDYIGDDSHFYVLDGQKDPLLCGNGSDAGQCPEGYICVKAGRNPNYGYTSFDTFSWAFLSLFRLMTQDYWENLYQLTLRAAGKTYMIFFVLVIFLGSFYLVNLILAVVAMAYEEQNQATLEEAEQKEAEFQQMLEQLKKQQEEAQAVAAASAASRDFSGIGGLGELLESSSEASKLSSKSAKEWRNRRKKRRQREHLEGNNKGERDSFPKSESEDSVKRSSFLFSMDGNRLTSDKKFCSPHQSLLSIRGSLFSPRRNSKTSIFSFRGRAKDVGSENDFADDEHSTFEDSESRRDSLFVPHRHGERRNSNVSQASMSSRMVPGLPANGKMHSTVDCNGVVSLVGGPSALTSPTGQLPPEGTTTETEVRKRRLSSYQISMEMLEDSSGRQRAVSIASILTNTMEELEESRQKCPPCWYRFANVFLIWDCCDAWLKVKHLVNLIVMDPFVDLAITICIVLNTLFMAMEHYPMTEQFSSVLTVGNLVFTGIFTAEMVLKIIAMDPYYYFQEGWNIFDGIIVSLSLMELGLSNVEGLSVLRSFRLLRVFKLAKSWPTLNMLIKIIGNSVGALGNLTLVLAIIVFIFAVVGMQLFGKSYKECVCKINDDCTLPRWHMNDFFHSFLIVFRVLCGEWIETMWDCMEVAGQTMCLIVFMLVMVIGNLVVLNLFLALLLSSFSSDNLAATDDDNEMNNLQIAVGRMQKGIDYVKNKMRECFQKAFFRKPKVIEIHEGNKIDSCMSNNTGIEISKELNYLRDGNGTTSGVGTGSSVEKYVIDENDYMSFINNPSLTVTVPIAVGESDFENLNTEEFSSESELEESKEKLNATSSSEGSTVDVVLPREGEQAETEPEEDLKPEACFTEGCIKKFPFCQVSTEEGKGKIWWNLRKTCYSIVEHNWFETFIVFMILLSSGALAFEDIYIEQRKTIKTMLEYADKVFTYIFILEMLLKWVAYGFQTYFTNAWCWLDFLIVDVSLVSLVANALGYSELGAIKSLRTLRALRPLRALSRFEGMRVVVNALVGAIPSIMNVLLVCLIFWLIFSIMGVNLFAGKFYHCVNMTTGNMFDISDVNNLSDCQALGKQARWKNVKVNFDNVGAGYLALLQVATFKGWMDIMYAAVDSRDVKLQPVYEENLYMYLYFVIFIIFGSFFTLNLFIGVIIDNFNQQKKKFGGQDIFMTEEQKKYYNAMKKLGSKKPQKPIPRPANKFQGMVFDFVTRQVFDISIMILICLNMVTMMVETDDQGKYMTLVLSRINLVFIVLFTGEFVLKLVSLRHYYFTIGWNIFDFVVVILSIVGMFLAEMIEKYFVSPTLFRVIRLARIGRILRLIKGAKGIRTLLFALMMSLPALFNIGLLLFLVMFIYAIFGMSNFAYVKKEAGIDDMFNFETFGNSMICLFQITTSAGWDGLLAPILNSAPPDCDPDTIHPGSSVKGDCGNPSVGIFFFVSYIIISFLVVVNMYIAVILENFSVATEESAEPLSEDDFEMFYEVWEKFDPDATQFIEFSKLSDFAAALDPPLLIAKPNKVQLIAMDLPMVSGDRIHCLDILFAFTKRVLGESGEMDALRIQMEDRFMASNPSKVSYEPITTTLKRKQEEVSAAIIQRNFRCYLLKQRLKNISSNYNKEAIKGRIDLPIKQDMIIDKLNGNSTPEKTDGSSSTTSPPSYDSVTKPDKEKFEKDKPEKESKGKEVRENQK

On to `CC[C@H](C)[C@@H]1NC(=O)[C@@H]2CSSC[C@@H]3NC(=O)[C@H](C(C)C)NC(=O)[C@H](CC(C)C)NC(=O)[C@H](CC(N)=O)NC(=O)[C@@H]4CCCN4C(=O)[C@H](CCCNC(=N)N)NC(=O)[C@H](CSSC[C@H](NC(=O)[C@@H](N)CC(=O)O)C(=O)N[C@@H](CC(C)C)C(=O)NCC(=O)N[C@@H](Cc4ccccc4)C(=O)N[C@@H](CCSC)C(=O)N[C@@H](CCCNC(=N)N)C(=O)N[C@@H](CCCCN)C(=O)N2)NC(=O)[C@H](CSSC[C@@H](C(=O)N[C@@H](CCCCN)C(=O)N[C@@H](Cc2ccc(O)cc2)C(=O)N[C@H](C(=O)N[C@@H](Cc2ccccc2)C(N)=O)C(C)C)NC(=O)[C@H](Cc2c[nH]c4ccccc24)NC(=O)[C@H](CCCCN)NC(=O)[C@H](Cc2c[nH]cn2)NC(=O)[C@H](Cc2ccc(C(=O)O)cc2)NC(=O)[C@H](CCCNC(=N)N)NC(=O)[C@H](CO)NC3=O)NC(=O)[C@H](CCCCN)NC(=O)[C@H](CC(=O)O)NC(=O)[C@H](CC(N)=O)NC(=O)[C@H](CC(=O)O)NC(=O)[C@@H]2CCCN2C1=O` [compound 350] (H-DCLGFMRKCIPDNDKCCRPNLVCSR[Phe(4-COOH)]HKWCKYVF-NH2; disulfide 2-17, 9-23, 16-30), for which the IC50 is 400 nM at hNav1.7 (Table 22, IonWorks Quattro, use, […], read-out: IWQ Use Nav1.7); 6460 nM on hNav1.5 (Table 22, use, […]); 2620 nM on hNav1.3 (Table 22, use, […]).

As for `CC[C@H](C)[C@@H]1NC(=O)[C@@H]2CSSC[C@@H]3NC(=O)[C@H](C(C)C)NC(=O)[C@H](CC(C)C)NC(=O)[C@H](CC(N)=O)NC(=O)[C@@H]4CCCN4C(=O)[C@H](CCCNC(=N)N)NC(=O)[C@H](CSSC[C@H](NC(=O)[C@@H](N)CC(=O)O)C(=O)N[C@@H](CC(C)C)C(=O)NCC(=O)N(C)[C@@H](CC(C)C)C(=O)N[C@@H](Cc4ccccc4)C(=O)N[C@@H](CCCNC(=N)N)C(=O)N[C@@H](CCCCN)C(=O)N2)NC(=O)[C@H](CSSC[C@@H](C(=O)N[C@@H](CCCCN)C(=O)N[C@@H](Cc2ccc(O)cc2)C(=O)N[C@H](C(=O)N[C@@H](Cc2ccccc2)C(N)=O)C(C)C)NC(=O)[C@H](Cc2c[nH]c4ccccc24)NC(=O)[C@H](CCCCN)NC(=O)[C@H](Cc2c[nH]cn2)NC(=O)[C@H]([C@@H](C)O)NC(=O)[C@H](CCCNC(=N)N)NC(=O)[C@H](CO)NC3=O)NC(=O)[C@H](CCCCN)NC(=O)[C@H](CC(=O)O)NC(=O)[C@H](CC(N)=O)NC(=O)[C@H](CC(=O)O)NC(=O)[C@@H]2CCCN2C1=O` [compound 628] (H-DCLG[NMeL]FRKCIPDNDKCCRPNLVCSRTHKWCKYVF-NH2; disulfide 2-17, 9-23, 16-30), the IC50 at hNav1.7 (IonWorks Quattro, use-dependent protocol, hNav1.7, read-out: IWQ Use Nav1.7) amounted to 76 nM; at hNav1.5 (use-dependent protocol, hNav1.5), 8400 nM; at hNav1.3 (use-dependent protocol, hNav1.3), 91 nM.

As for `CC[C@H](C)[C@@H]1NC(=O)[C@@H]2CSSC[C@@H]3NC(=O)[C@H](C(C)C)NC(=O)[C@H](CC(C)C)NC(=O)[C@H](CC(N)=O)NC(=O)[C@@H]4CCCN4C(=O)[C@H](CCCNC(=N)N)NC(=O)[C@H](CSSC[C@H](NC(=O)[C@@H](N)CC(=O)O)C(=O)N[C@@H](CC(C)C)C(=O)NCC(=O)N[C@@H](Cc4ccccc4)C(=O)N[C@@H](CCSC)C(=O)N[C@@H](CCCNC(=N)N)C(=O)N[C@@H](CCCCN)C(=O)N2)NC(=O)[C@H](CSSC[C@@H](C(=O)N[C@@H](CCCCN)C(=O)N[C@@H](Cc2ccc(O)cc2)C(=O)N[C@H](C(=O)N[C@@H](Cc2ccccc2)C(N)=O)C(C)C)NC(=O)[C@H](Cc2c[nH]c4ccccc24)NC(=O)[C@H](CCCCN)NC(=O)[C@H](Cc2c[nH]cn2)NC(=O)[C@H]([C@@H](C)O)NC(=O)[C@H](CCCNC(=NC)NC)NC(=O)[C@H](CO)NC3=O)NC(=O)[C@H](CCCCN)NC(=O)[C@H](CC(=O)O)NC(=O)[C@H](CC(N)=O)NC(=O)[C@H](CC(=O)O)NC(=O)[C@@H]2CCCN2C1=O` [compound 336], the IC50 on hNav1.7 is 140 nM; on hNav1.5 (Use), 9220 nM; on hNav1.3 (Use), 110 nM.
